Results on 23 compounds are retold here after patent US11028054B2, “1, 4, 6-trisubstituted-2-alkyl-1H-benzo[d]imidazole derivatives as dihydroorotate oxygenase inhibitors” (Merck Patent GmbH, priority 2017, dated 2021).

The structures appear in SMILES notation. A value given as a limit tells only on which side of the number the result lay.

Sequence of DHODH (Q02127 whole entry): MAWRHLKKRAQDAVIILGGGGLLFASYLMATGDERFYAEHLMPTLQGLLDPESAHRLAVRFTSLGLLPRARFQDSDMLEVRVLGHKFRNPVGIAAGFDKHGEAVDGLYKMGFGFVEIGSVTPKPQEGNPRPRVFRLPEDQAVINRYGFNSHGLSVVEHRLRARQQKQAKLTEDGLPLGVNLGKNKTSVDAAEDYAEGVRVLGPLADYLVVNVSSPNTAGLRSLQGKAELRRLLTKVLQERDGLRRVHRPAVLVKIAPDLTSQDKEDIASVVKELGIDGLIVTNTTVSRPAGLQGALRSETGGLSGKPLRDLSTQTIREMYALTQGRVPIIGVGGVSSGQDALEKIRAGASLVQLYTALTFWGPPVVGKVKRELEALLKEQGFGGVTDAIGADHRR

The test deals with DHODH (Homo sapiens (Human), UniProt Q02127). The experiment in a line: Measurement of DHODH inhibitory enzyme activity (coupled DCIP reduction assay). The test is classed as biochemical. From the text:
Measurement of DHODH Inhibitory Enzyme Activity (In Vitro Assays)
The DHODH activity assay is a coupled enzyme assay in which oxidation of DHO and subsequent reduction of ubiquinone are stoichiometrically equivalent to the reduction of DCIP ([…]). The reduction of DCIP is accompanied by a loss of absorbance at 610 nm.
Reagents used: L-Dihydroorotic acid, Sigma, D7128, 2,6-Dichloroindophenol sodium salt hydrate, sigma, D1878 Dimethyl sulfoxide (DMSO), spectroscopic grade purchased from Spectrochem, cat no. 0704209, B. no.—3183650 Decylubiquinone, Sigma, D7911.
Preparation of Solutions/Reagents:
Buffer Preparation: 50 mM tris HCl, 150 mM KCl, and pH 8.0, 0.8% triton.
L-Dihydroorotic acid stock solution of 20 mM in buffer.
2, 6-Dichloroindophenol Sodium salt hydrate stock solution of 20 mM in buffer.
Decylubiquinone stock solution of 20 mM in buffer.
5 μL of Dimethyl sulfoxide or a compound of formula (I) in DMSO solution was added to the wells of a 96 well plate. Compounds of formula (I) were measured at 10 μM.
Protein along with buffer was added, so that the total volume including the DMSO was 87 μL. Compound and protein were incubated for half an hour at room temperature after mixing. 5 μL of 20 mM solution of L-Dihydroorotic acid, 5 μL of 2 mM solution of Decylubiquinone and 3 μL of 2 mM solution of 2, 6-Dichloroindophenol sodium salt hydrate were added to the above solution (total assay volume 100 μL). The mixture was stirred for 2 min and absorbance was recorded at every 10 min at 610 nanometers.
Percent inhibition is calculated as follows 100*{(Abs610 for reaction containing compound)−(Abs610 for positive control) (Abs610 for no enzyme reaction)−(Abs610 for positive control) Reaction containing compound has compound, buffer, enzyme and substrates Positive control contains DMSO, buffer, enzyme and substrates No Enzyme reaction contains DMSO, buffer and substrates IC50 determination: A 2 mM DMSO stock solution of the selected 1, 4, 6-trisubstituted-2-alkyl-1H-benzo[d]imidazole derivatives of formula (I) of the present invention to be examined was prepared. Subsequent ⅓rd dilutions were made as follows:
5 μL of each stock of compound of formula (I) (solution indicated in column 4 of table) was used for each 100 μL assay. Therefore, 5 μL of the 2 mM stock provided 100 μL of 100 μM solution of compound of formula (I), when made up with buffer, protein and substrate. See also: Ulrich et al. (2001) Eur. J. Biochem. 268, 1861-1868.
Compound `Cc1nc2c(C(=O)O)cc(-c3ccc(-c4ccc(O)cc4)cc3)cc2[nH]1` [Example 20, 6-(4'-hydroxy-[1,1'-biphenyl]-4-yl)-2-methyl-1H-benzo[d]imidazole-4-carboxylic acid] showed an IC50 of 10 to 99 nM.

The compound `Cc1nc2c(C(=O)O)cc(-c3ccc(-n4c(C)ccc4C)cc3)cc2[nH]1` [Example 111, 6-(4-(2,5-dimethyl-1H-pyrrol-1-yl)phenyl)-2-methyl-1H-benzo[d]imidazole-4-carboxylic acid] had an IC50 of 1 to 9.9 nM.

`Cc1nc2c(C(=O)O)cc(-c3ccc(-c4c(C)cccc4C)cc3)cc2[nH]1` [Example 145, 6-(2',6'-dimethyl-[1,1'-biphenyl]-4-yl)-2-methyl-1H-benzo[d]imidazole-4-carboxylic acid]: the IC50 was 10 to 99 nM.

In the case of `Cc1nc2c(C(=O)O)cc(-c3ccc(-c4cccc(CN5CCS(=O)(=O)CC5)c4)cc3)cc2[nH]1` [Example 36, 6-(3'-((1,1-dioxidothiomorpholino)methyl)-[1,1'-biphenyl]-4-yl)-2-methyl-1H-benzo[d]imidazole-4-carboxylic acid.2,2,2-trifluoroacetic acid], the IC50 was 10 to 99 nM.

Take `Cc1nc2c(C(=O)O)cc(-c3ccc(-c4ccccc4CN4CC[C@@H](F)C4)cc3)cc2[nH]1` [Example 117, (R)-6-(2'-((3-fluoropyrrolidin-1-yl)methyl)-[1,1'-biphenyl]-4-yl)-2-methyl-1H-benzo[d]imidazole-4-carboxylic acid.2,2,2-trifluoroacetic acid]: the IC50 fell in the range of 1 to 9.9 nM.

Turning to `Cc1nc2c(C(=O)O)cc(-c3ccc(-c4ccccc4O)cc3)cc2[nH]1` [Example 23, 6-(2'-hydroxy-[1,1'-biphenyl]-4-yl)-2-methyl-1H-benzo[d]imidazole-4-carboxylic acid], the IC50 was in the range of 10 to 99 nM.

As to `Cc1nc2c(C(=O)O)cc(-c3c(F)c(F)c(-c4ccc(CN5CCS(=O)(=O)CC5)cc4)c(F)c3F)cc2[nH]1` [Example 65, 6-(4'-((1,1-dioxidothiomorpholino)methyl)-2,3,5,6-tetrafluoro-[1,1'-biphenyl]-4-yl)-2-methyl-1H-benzo[d]imidazole-4-carboxylic acid.2,2,2-trifluoroacetic acid], the IC50 lay within 1 to 9.9 nM.

Consider `Cc1nc2c(C(=O)O)cc(-c3c(F)c(F)c(-c4ccc(CN5CCCC5)cc4)c(F)c3F)cc2[nH]1` [Example 62, 2-methyl-6-(2,3,5,6-tetrafluoro-4'-(pyrrolidin-1-ylmethyl)-[1,1'-biphenyl]-4-yl)-1H-benzo[d]imidazole-4-carboxylic acid.2,2,2-trifluoroacetic acid], for which the concentration for half-maximal inhibition (IC50) was in the range of 10 to 99 nM.

In turn, `Cc1nc2c(C(=O)O)cc(-c3c(F)c(F)c(-c4cccc(CNC5CC5)c4)c(F)c3F)cc2[nH]1` [Example 60, 6-(3'-((cyclopropylamino)methyl)-2,3,5,6-tetrafluoro-[1,1'-biphenyl]-4-yl)-2-methyl-1H-benzo[d]imidazole-4-carboxylic acid.2,2,2-trifluoroacetic acid] returned an IC50 of 1 to 9.9 nM.

In the case of `Cc1nc2c(C(=O)O)cc(-c3c(F)c(F)c(-c4ccccc4)c(F)c3F)cc2[nH]1` [Example 52, 2-methyl-6-(2,3,5,6-tetrafluoro-[1,1'-biphenyl]-4-yl)-1H-benzo[d]imidazole-4-carboxylic acid], the IC50 was in the range of 1 to 9.9 nM.

`Cc1nc2c(C(=O)O)cc(-c3c(F)c(F)c(-n4c(C)ccc4C)c(F)c3F)cc2[nH]1` [Example 67, 6-(4-(2,5-dimethyl-1H-pyrrol-1-yl)-2,3,5,6-tetrafluorophenyl)-2-methyl-1H-benzo[d]imidazole-4-carboxylic acid] displayed an IC50 of 1 to 9.9 nM.

With `Cc1nc2c(C(=O)O)cc(-c3ccc(-c4ccccc4CN4CCCC4)cc3)cc2[nH]1` [Example 46, 2-methyl-6-(2'-(pyrrolidin-1-ylmethyl)-[1,1'-biphenyl]-4-yl)-1H-benzo[d]imidazole-4-carboxylic acid.2,2,2-trifluoroacetic acid], the IC50 lay within 1 to 9.9 nM.

In the case of `Cc1nc2c(C(=O)O)cc(-c3c(F)c(F)c(-c4cccc(CO)c4)c(F)c3F)cc2[nH]1` [Example 57, 2-methyl-6-(2,3,5,6-tetrafluoro-3'-(hydroxymethyl)-[1,1'-biphenyl]-4-yl)-1H-benzo[d]imidazole-4-carboxylic acid.2,2,2-trifluoroacetic acid], the half-maximal inhibitory concentration (IC50) lay in the range of 1 to 9.9 nM.

For `Cc1nc2c(C(=O)O)cc(-c3c(F)c(F)c(-c4ccc(CN5CCCC(F)(F)C5)cc4)c(F)c3F)cc2[nH]1` [Example 64, 6-(4'-((3,3-difluoropiperidin-1-yl)methyl)-2,3,5,6-tetrafluoro-[1,1'-biphenyl]-4-yl)-2-methyl-1H-benzo[d]imidazole-4-carboxylic acid.2,2,2-trifluoroacetic acid], the IC50 was 1 to 9.9 nM.

`Cc1nc2c(C(=O)O)cc(-c3ccc(-c4c(F)cccc4CN4CCCC4)cc3)cc2[nH]1` [Example 150, 6-(2'-fluoro-6'-(pyrrolidin-1-ylmethyl)-[1,1'-biphenyl]-4-yl)-2-methyl-1H-benzo[d]imidazole-4-carboxylic acid.2,2,2-trifluoroacetic acid] had an IC50 of 1 to 9.9 nM.

For the compound `Cc1nc2c(C(=O)O)cc(-c3ccc(OCc4ccccc4)cc3)cc2[nH]1` [Example 69, 6-(4-(benzyloxy)phenyl)-2-methyl-1H-benzo[d]imidazole-4-carboxylic acid], the IC50 was 1 to 9.9 nM.

As for `Cc1nc2c(C(=O)O)cc(-c3ccc(-c4cccc(O)c4)cc3)cc2[nH]1` [Example 16, 6-(3'-hydroxy-[1,1'-biphenyl]-4-yl)-2-methyl-1H-benzo[d]imidazole-4-carboxylic acid], the IC50 is 10 to 99 nM.

The compound `Cc1nc2c(C(=O)O)cc(-c3ccc(-c4cccc(OCc5ccccc5)c4)cc3)cc2[nH]1` [Example 15, 6-(3'-(benzyloxy)-[1,1'-biphenyl]-4-yl)-2-methyl-1H-benzo[d]imidazole-4-carboxylic acid] came in with an IC50 of 10 to 99 nM.

For `Cc1nc2c(C(=O)O)cc(-c3ccc(-c4cccc(F)c4F)cc3)cc2[nH]1` [Example 4, 6-(2',3'-difluoro-[1,1'-biphenyl]-4-yl)-2-methyl-1H-benzo[d]imidazole-4-carboxylic acid], the IC50 is over 100 nM.

`Cc1nc2c(C(=O)O)cc(-c3c(F)c(F)c(-c4cccc(CN5CCCCC5)c4)c(F)c3F)cc2[nH]1` [Example 56, 2-methyl-6-(2,3,5,6-tetrafluoro-3'-(piperidin-1-ylmethyl)-[1,1'-biphenyl]-4-yl)-1H-benzo[d]imidazole-4-carboxylic acid.2,2,2-trifluoroacetic acid]: the IC50 was in the range of 1 to 9.9 nM.

With `Cc1nc2c(C(=O)O)cc(-c3ccc(-c4cccc(CO)c4)cc3)cc2[nH]1` [Example 90, 6-(3'-(hydroxymethyl)-[1,1'-biphenyl]-4-yl)-2-methyl-1H-benzo[d]imidazole-4-carboxylic acid], the IC50 was in the range of 10 to 99 nM.

The compound `Cc1nc2c(C(=O)O)cc(-c3c(F)c(F)c(-c4ccccc4CN4CCCCC4)c(F)c3F)cc2[nH]1` [Example 53, 2-methyl-6-(2,3,5,6-tetrafluoro-2'-(piperidin-1-ylmethyl)-[1,1'-biphenyl]-4-yl)-1H-benzo[d]imidazole-4-carboxylic acid.2,2,2-trifluoroacetic acid] returned an IC50 of 1 to 9.9 nM.

Consider `COc1cccc(-c2ccc(-c3cc(C(=O)O)c4nc(C)[nH]c4c3)cc2)c1F` [Example 21, 6-(2'-fluoro-3'-methoxy-[1,1'-biphenyl]-4-yl)-2-methyl-1H-benzo[d]imidazole-4-carboxylic acid], for which the IC50 lay in the range of 10 to 99 nM.
